According to patent publication US20260062422A1 (Halda Therapeutics OpCo, Inc., priority 2022, published 2026):

What was measured:
[1] = test system: T-Rex 293 cell line SC3 cells lacking increased expression of androgen receptor protein; experiment: Cellular growth inhibition, T-Rex 293 SC3 cells without doxycycline, CellTiter-Glo; type: cell-based; conditions: T-Rex 293 SC3 cells not exposed to doxycycline, CellTiter-Glo 2.0
In short: (§1)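 GI50 came from a four-parameter fit of CellTiter-Glo 2.0 luminescence after 72 h compound exposure (0.5% DMSO, 37 °C), dosing 24 h post-seeding. SC3 clone cells (2500/well), transfected with wild-type androgen receptor, grew in charcoal-stripped serum medium lacking phenol red, induced with 10 ng/mL doxycycline or left uninduced.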

[2] = test system: VCaP cells; experiment: Cellular growth inhibition assay for VCaP cells, CellTiter-Glo; type: cell-based, human; conditions: 72 hours treatment, CellTiter-Glo 2.0
In short: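 GI50 values come from four-parameter curve fits of luminescence data normalized to a zero baseline. Compound, in medium with 0.5% DMSO, was added one day after plating and left for 72 h before CellTiter-Glo 2.0 addition.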

[3] = test system: T-Rex 293 cell line SC3 cells having increased expression of androgen receptor protein due to exposure to doxycycline; experiment: Cellular growth inhibition, T-Rex 293 SC3 cells with doxycycline (androgen receptor induced), CellTiter-Glo; type: cell-based; conditions: T-Rex 293 SC3 cells with 10 ng/mL doxycycline (increased androgen receptor expression)
In short: as §1

[4] = test system: T47D cells; experiment: Cellular growth inhibition assay for T47D cells, CellTiter-Glo; type: cell-based, human; conditions: 72 hours treatment, CellTiter-Glo 2.0 cell viability
In short: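 Cells are plated at 3000/well and allowed 24 h before treatment. Test compound in medium containing 0.5% DMSO is then added, with DMSO-only wells as negative control, and plates are incubated 72 h at 37 °C. ATP luminescence (CellTiter-Glo 2.0) is then fitted to four parameters to derive GI50.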

Row | Structure (SMILES) | GI50 ([2]; Homo sapiens, VCaP, 72 h) | GI50 ([4]; Homo sapiens, T47D, 72 h) | GI50 [2] | GI50 [4] | GI50 ([1]; 72 h) | GI50 ([3]; 72 h) | GI50 ([1]; 72 hours) | GI50 ([3]; 72 hours)
1 | Cc1sc2c(c1C)C(c1ccc(-c3cc(OC4CCN(c5ncc(C(=O)N[C@H]6C(C)(C)[C@H](Oc7ccc(C#N)c(Cl)c7)C6(C)C)cn5)CC4)ns3)cc1)=N[C@@H](Cc1ncco1)c1nnc(C)n1-2 [Compound I-389] | 500 to 1500 nM | < 500 nM |  |  | > 3000 nM | < 500 nM |  | 
2 | Cc1sc2c(c1C)C(c1ccc(-c3scnc3OC3CCN(c4ncc(C(=O)N[C@H]5C(C)(C)[C@H](Oc6ccc(C#N)c(Cl)c6)C5(C)C)cn4)CC3)cc1)=N[C@@H](Cc1ncco1)c1nnc(C)n1-2 [Compound I-390] | < 500 nM | > 3000 nM |  |  | > 3000 nM | < 500 nM |  | 
3 | Cc1sc2c(c1C)C(c1ccc(OC3CC4(CCN(c5ncc(C(=O)N[C@H]6C(C)(C)[C@H](Oc7ccc(C#N)c(Cl)c7)C6(C)C)cn5)CC4)C3)cc1)=N[C@@H](C)c1nnc(C)n1-2 [Compound I-391] | 1500 to 3000 nM | 500 to 1500 nM |  |  | > 3000 nM | < 500 nM |  | 
4 | Cc1sc2c(c1C)C(c1ccc(O[C@H]3C[C@@]4(CCCN(c5ncc(C(=O)N[C@H]6C(C)(C)[C@H](Oc7ccc(C#N)c(Cl)c7)C6(C)C)cn5)C4)C3)cc1)=N[C@@H](C)c1nnc(C)n1-2 [Compound I-392] | 500 to 1500 nM | 500 to 1500 nM |  |  | > 3000 nM | < 500 nM |  | 
5 | Cc1sc2c(c1C)C(c1ccc(C[C@H]3C[C@@]4(CCCN(c5ncc(C(=O)N[C@H]6C(C)(C)[C@H](Oc7ccc(C#N)c(Cl)c7)C6(C)C)cn5)C4)C3)cc1)=N[C@@H](C)c1nnc(C)n1-2 [Compound I-393] | < 500 nM | > 3000 nM |  |  | > 3000 nM | < 500 nM |  | 
6 | Cc1sc2c(c1C)C(c1ccc(C[C@H]3C[C@]4(CCCN(c5ncc(C(=O)N[C@H]6C(C)(C)[C@H](Oc7ccc(C#N)c(Cl)c7)C6(C)C)cn5)C4)C3)cc1)=N[C@@H](C)c1nnc(C)n1-2 [Compound I-394] | < 500 nM | < 500 nM |  |  | > 3000 nM | < 500 nM |  | 
7 | Cc1sc2c(c1C)C(c1ccc(COC3CC4(CCCN(c5ncc(C(=O)N[C@H]6C(C)(C)[C@H](Oc7ccc(C#N)c(Cl)c7)C6(C)C)cn5)C4)C3)cc1)=N[C@@H](C)c1nnc(C)n1-2 [Compound I-395] | < 500 nM | < 500 nM |  |  | > 3000 nM | < 500 nM |  | 
8 | Cc1sc2c(c1C)C(c1ccc(-c3nnc(OC4CCN(c5ncc(C(=O)N[C@H]6C(C)(C)[C@H](Oc7ccc(C#N)c(Cl)c7)C6(C)C)cn5)CC4)s3)cc1)=N[C@@H](Cc1ncco1)c1nnc(C)n1-2 [Compound I-407] | < 500 nM | < 500 nM |  |  | < 500 nM | < 500 nM |  | 
9 | Cc1sc2c(c1C)C(c1ccc(-c3csc(OC4CCN(c5ncc(C(=O)N[C@H]6C(C)(C)[C@H](Oc7ccc(C#N)c(Cl)c7)C6(C)C)cn5)CC4)n3)cc1)=N[C@@H](Cc1ncco1)c1nnc(C)n1-2 [Compound I-408] | 500 to 1500 nM | < 500 nM |  |  | > 3000 nM | < 500 nM |  | 
10 | Cc1sc2c(c1C)C(c1ccc(O[C@H]3C[C@]4(CCCN(c5ncc(C(=O)N[C@H]6C(C)(C)[C@H](Oc7ccc(C#N)c(Cl)c7)C6(C)C)cn5)C4)C3)cc1)=N[C@@H](C)c1nnc(C)n1-2 [Compound I-410] | > 3000 nM | > 3000 nM |  |  | > 3000 nM | < 500 nM |  | 

Second part, led by results:

Row | GI50 ([2]; Homo sapiens, VCaP, 72 h) | GI50 ([4]; Homo sapiens, T47D, 72 h) | GI50 [2] | GI50 [4] | Structure (SMILES) | GI50 ([1]; 72 h) | GI50 ([3]; 72 h) | GI50 ([1]; 72 hours) | GI50 ([3]; 72 hours)
11 |  | > 3000 nM | > 3000 nM |  | Cc1sc2c(c1C)C(c1ccc(C(C)(C)N3CC4(CCN(c5ncc(C(=O)N[C@H]6C(C)(C)[C@H](Oc7ccc(C#N)c(Cl)c7)C6(C)C)cn5)CC4)C3)cc1)=N[C@@H](Cc1ncco1)c1nnc(C)n1-2 [Compound I-396] |  |  | > 3000 nM | > 3000 nM
12 | > 3000 nM | > 3000 nM |  |  | Cc1sc2c(c1C)C(c1ccc(C3CC(C4CCN(c5ncc(C(=O)N[C@H]6C(C)(C)[C@H](Oc7ccc(C#N)c(Cl)c7)C6(C)C)cn5)CC4)C3)cc1)=N[C@@H](Cc1ncco1)c1nnc(C)n1-2 (stereo partly shown) [Compound I-397] | > 3000 nM | > 3000 nM |  | 
13 | < 500 nM | < 500 nM |  |  | Cc1sc2c(c1C)C(c1ccc([C@H]3C[C@@H](C4CCN(c5ncc(C(=O)N[C@H]6C(C)(C)[C@H](Oc7ccc(C#N)c(Cl)c7)C6(C)C)cn5)CC4)C3)cc1)=N[C@@H](Cc1ncco1)c1nnc(C)n1-2 [Compound I-398] | > 3000 nM | < 500 nM |  | 
14 | 500 to 1500 nM | < 500 nM |  |  | Cc1sc2c(c1C)C(c1ccc([C@H]3C[C@H](C4CCN(c5ncc(C(=O)N[C@H]6C(C)(C)[C@H](Oc7ccc(C#N)c(Cl)c7)C6(C)C)cn5)CC4)C3)cc1)=N[C@@H](Cc1ncco1)c1nnc(C)n1-2 [Compound I-399] | > 3000 nM | < 500 nM |  | 
15 | > 3000 nM | > 3000 nM |  |  | Cc1sc2c(c1C)C(c1ccc([C@H]3C[C@@H](C[C@@H]4CCCN(c5ncc(C(=O)N[C@H]6C(C)(C)[C@H](Oc7ccc(C#N)c(Cl)c7)C6(C)C)cn5)C4)C3)cc1)=N[C@@H](Cc1ncco1)c1nnc(C)n1-2 [Compound I-400] | > 3000 nM | > 3000 nM |  | 
16 |  |  | > 3000 nM | > 3000 nM | Cc1sc2c(c1C)C(c1ccc([C@H]3C[C@@H](C[C@@H]4CCCN(c5ncc(C(=O)N[C@H]6C(C)(C)[C@H](Oc7ccc(C#N)c(Cl)c7)C6(C)C)cn5)C4)C3)cc1)=N[C@@H](Cc1ncco1)c1nnc(C)n1-2 [Compound I-401] |  |  | > 3000 nM | > 3000 nM
17 |  | < 500 nM | 500 to 1500 nM |  | Cc1sc2c(c1C)C(c1ccc([C@H]3C[C@H](C[C@@H]4CCCN(c5ncc(C(=O)N[C@H]6C(C)(C)[C@H](Oc7ccc(C#N)c(Cl)c7)C6(C)C)cn5)C4)C3)cc1)=N[C@@H](Cc1ncco1)c1nnc(C)n1-2 [Compound I-402] | > 3000 nM | < 500 nM |  | 
18 |  |  | > 3000 nM | < 500 nM | Cc1sc2c(c1C)C(c1ccc([C@H]3C[C@H](C[C@@H]4CCCN(c5ncc(C(=O)N[C@H]6C(C)(C)[C@H](Oc7ccc(C#N)c(Cl)c7)C6(C)C)cn5)C4)C3)cc1)=N[C@@H](Cc1ncco1)c1nnc(C)n1-2 [Compound I-403] |  |  | > 3000 nM | < 500 nM
19 | > 3000 nM | > 3000 nM |  |  | Cc1sc2c(c1C)C(c1ccc([C@H]3CC[C@]4(C3)CN(c3ncc(C(=O)N[C@H]5C(C)(C)[C@H](Oc6ccc(C#N)c(Cl)c6)C5(C)C)cn3)CCO4)cc1)=N[C@@H](Cc1ncco1)c1nnc(C)n1-2 [Compound I-404] | > 3000 nM | > 3000 nM |  | 
20 | < 500 nM | < 500 nM |  |  | Cc1sc2c(c1C)C(c1ccc([C@@H]3CC[C@]4(C3)CN(c3ncc(C(=O)N[C@H]5C(C)(C)[C@H](Oc6ccc(C#N)c(Cl)c6)C5(C)C)cn3)CCO4)cc1)=N[C@@H](Cc1ncco1)c1nnc(C)n1-2 [Compound I-405] | 500 to 1500 nM | < 500 nM |  | 
21 | < 500 nM | < 500 nM |  |  | Cc1sc2c(c1C)C(c1ccc([C@@H]3CC[C@@]4(C3)CN(c3ncc(C(=O)N[C@H]5C(C)(C)[C@H](Oc6ccc(C#N)c(Cl)c6)C5(C)C)cn3)CCO4)cc1)=N[C@@H](Cc1ncco1)c1nnc(C)n1-2 [Compound I-406] | > 3000 nM | < 500 nM |  | 
22 | > 3000 nM | < 500 nM |  |  | Cc1sc2c(c1C)C(c1ccc(-c3ccc(OC4CCN(c5ncc(C(=O)N[C@H]6C(C)(C)[C@H](Oc7ccc(C#N)c(Cl)c7)C6(C)C)cn5)CC4)s3)cc1)=N[C@@H](Cc1ncco1)c1nnc(C)n1-2 [Compound I-409] | > 3000 nM | < 500 nM |  | 
